Key:
bedstraw = test: Test B pre/postemergence bedstraw; assay type: in vivo, Galium aparine; conditions: Preemergence
In short: (§1)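 Response is a visual 0-to-10 score relative to untreated plants, where 0 means no effect and 10 means complete control, taken twelve to sixteen days after application. Treatments went onto soil at planting and onto foliage of 1- to 4-leaf plants, using a surfactant-containing non-phytotoxic solvent.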

blackgrass = test: Test B pre/postemergence blackgrass; assay type: in vivo, Alopecurus myosuroides
In short: as §1

surinam grass = test: Test B pre/postemergence surinam grass; assay type: in vivo, Brachiaria decumbens
In short: as §1

corn = test: Test B pre/postemergence corn; assay type: in vivo, Zea mays
In short: as §1

crabgrass = test: Test B pre/postemergence crabgrass; assay type: in vivo, Digitaria sanguinalis
In short: as §1

giant foxtail = test: Test B pre/postemergence giant foxtail; assay type: in vivo, Setaria faberii
In short: as §1

morningglory = test: Test B pre/postemergence morningglory; assay type: in vivo, Ipomoea hederacea
In short: as §1

pigweed = test: Test B pre/postemergence pigweed; assay type: in vivo, Amaranthus retroflexus
In short: as §1

soybean = test: Test B pre/postemergence soybean; assay type: in vivo, Glycine max
In short: as §1

velvetleaf = test: Test B pre/postemergence velvetleaf; assay type: in vivo, Abutilon theophrasti; conditions: for Plant response rating, Velvetleaf: Rate 250 g/ha
In short: as §1

wheat = test: Test B pre/postemergence wheat; assay type: in vivo, Triticum aestivum; conditions: for Plant response rating, Wheat: Rate 250 g/ha
In short: as §1

wild oat = test: Test B pre/postemergence wild oat; assay type: in vivo, Avena fatua; conditions: for Plant response rating, Wild oats: Rate 250 g/ha
In short: as §1

purple nutsedge = test: Test B pre/postemergence purple nutsedge; assay type: in vivo, Cyperus rotundus
In short: as §1

[1] = Postemergence, Rate 62 g/ha, scale 0 to 10, 0 is no effect, 10 is complete control
[2] = Postemergence, Rate 125 g/ha, scale of 0 to 10 where 0 is no effect and 10 is complete control
[3] = Postemergence, Rate 250 g/ha, scale 0 to 10, 0 no effect, 10 complete control
[4] = Preemergence, Rate 62 g/ha, scale 0 to 10 (0 no effect, 10 complete control)
[5] = Preemergence, Rate 125 g/ha, scale 0 to 10 (0 no effect, 10 complete control)
[6] = Preemergence, Rate 250 g/ha, scale of 0 to 10 where 0 is no effect and 10 is complete control
[7] = Preemergence, Rate 500 g/ha, scale 0 (no effect) to 10 (complete control)
[8] = Rate 500 g/ha, Postemergence, scale 0 to 10, 0 no effect, 10 complete control
[9] = Rate 250 g/ha, Postemergence, scale 0 to 10, 0 is no effect, 10 is complete control
[10] = Preemergence, Rate 125 g/ha, 0 is no effect, 10 is complete control
[11] = Preemergence, scale of 0 to 10 where 0 is no effect and 10 is complete control
[12] = Postemergence, scale 0 to 10, 0 is no effect, 10 is complete control

## CCCn1c(=O)on(C(=O)N(c2ccc(F)cc2)C(C)C)c1=O [Compound 91]
bedstraw; Rate 62 g/ha, scale 0 to 10 (0 no effect, 10 complete control)
  Bedstraw plant response rating: 0
bedstraw; Rate 125 g/ha, scale 0 to 10 (0 no effect, 10 complete control)
  Plant response rating, Bedstraw: 1
bedstraw; Rate 250 g/ha, scale of 0 to 10 where 0 is no effect and 10 is complete control
  Plant response rating, Bedstraw: 5
bedstraw; Rate 500 g/ha, scale 0 (no effect) to 10 (complete control)
  Bedstraw plant response rating: 8
blackgrass; [1]
  Blackgrass plant response rating: 8
blackgrass; [2]
  Blackgrass plant response rating: 8
blackgrass; [3]
  Blackgrass plant response rating: 8
blackgrass; [4]
  Blackgrass plant response rating: 10
blackgrass; [5]
  Plant response rating, Blackgrass: 10
blackgrass; [6]
  Plant response rating, Blackgrass: 10
blackgrass; [7]
  Blackgrass plant response rating: 10
blackgrass; [8]
  Blackgrass plant response rating: 8
Surinam grass; [1]
  B. signalgrass plant response rating: 4
Surinam grass; [3]
  B. signalgrass plant response rating: 8
Surinam grass; [4]
  B. signalgrass plant response rating: 7
Surinam grass; [5]
  Plant response rating, B. signalgrass: 10
Surinam grass; [6]
  Plant response rating, B. signalgrass: 10
Surinam grass; [7]
  B. signalgrass plant response rating: 10
Surinam grass; Rate 125 g/ha, Postemergence, scale 0 to 10, 0 no effect, 10 complete control
  B. signalgrass plant response rating: 4
Surinam grass; Rate 500 g/ha, Postemergence, scale of 0 to 10 where 0 is no effect and 10 is complete control
  B. signalgrass plant response rating: 8
corn; [1]
  Corn plant response rating: 2
corn; [2]
  Corn plant response rating: 2
corn; [3]
  Corn plant response rating: 3
corn; [4]
  Corn plant response rating: 3
corn; [5]
  Plant response rating, Corn: 6
corn; [6]
  Plant response rating, Corn: 8
corn; [7]
  Corn plant response rating: 9
corn; [8]
  Corn plant response rating: 5
crabgrass; [1]
  Crabgrass plant response rating: 5
crabgrass; [2]
  Crabgrass plant response rating: 9
crabgrass; [3]
  Crabgrass plant response rating: 9
crabgrass; [4]
  Crabgrass plant response rating: 10
crabgrass; [5]
  Plant response rating, Crabgrass: 10
crabgrass; [6]
  Plant response rating, Crabgrass: 10
crabgrass; [7]
  Crabgrass plant response rating: 10
crabgrass; [8]
  Crabgrass plant response rating: 9
Giant foxtail; [1]
  Giant foxtail plant response rating: 8
Giant foxtail; [2]
  Giant foxtail plant response rating: 8
Giant foxtail; [3]
  Giant foxtail plant response rating: 8
Giant foxtail; [4]
  Giant foxtail plant response rating: 10
Giant foxtail; [5]
  Plant response rating, Giant foxtail: 10
Giant foxtail; [6]
  Plant response rating, Giant foxtail: 10
Giant foxtail; [7]
  Giant foxtail plant response rating: 10
Giant foxtail; [8]
  Giant foxtail plant response rating: 9
morningglory; [1]
  Morningglory plant response rating: 7
morningglory; [2]
  Morningglory plant response rating: 7
morningglory; [3]
  Morningglory plant response rating: 8
morningglory; [4]
  Morningglory plant response rating: 0
morningglory; [5]
  Plant response rating, Morningglory: 0
morningglory; [6]
  Plant response rating, Morningglory: 4
morningglory; [7]
  Morningglory plant response rating: 6
morningglory; [8]
  Morningglory plant response rating: 9
pigweed; [1]
  Redroot pigweed plant response rating: 1
pigweed; [2]
  Redroot pigweed plant response rating: 4
pigweed; [4]
  Redroot pigweed plant response rating: 6
pigweed; [5]
  Plant response rating, Redroot pigweed: 9
pigweed; [6]
  Plant response rating, Redroot pigweed: 10
pigweed; [7]
  Redroot pigweed plant response rating: 10
pigweed; [9]
  Plant response rating, Redroot pigweed: 6
pigweed; [8]
  Redroot pigweed plant response rating: 8
soybean; [1]
  Soybean plant response rating: 3
soybean; [2]
  Soybean plant response rating: 3
soybean; [4]
  Soybean plant response rating: 0
soybean; [5]
  Plant response rating, Soybean: 0
soybean; [6]
  Plant response rating, Soybean: 4
soybean; [7]
  Soybean plant response rating: 7
soybean; [9]
  Plant response rating, Soybean: 4
soybean; [8]
  Soybean plant response rating: 5
velvetleaf; [1]
  Velvetleaf plant response rating: 0
velvetleaf; [2]
  Velvetleaf plant response rating: 0
velvetleaf; [4]
  Velvetleaf plant response rating: 6
velvetleaf; [10]
  Velvetleaf plant response rating (0 to 10 scale): 6
velvetleaf; [11]
  Plant response rating, Velvetleaf: 7
velvetleaf; [7]
  Velvetleaf plant response rating: 8
velvetleaf; [12]
  Plant response rating, Velvetleaf: 3
wheat; [1]
  Wheat plant response rating: 1
wheat; [2]
  Wheat plant response rating: 1
wheat; [4]
  Wheat plant response rating: 3
wheat; [10]
  Wheat plant response rating (0 to 10 scale): 4
wheat; [11]
  Plant response rating, Wheat: 4
wheat; [7]
  Wheat plant response rating: 6
wheat; [12]
  Plant response rating, Wheat: 4
wheat; [8]
  Wheat plant response rating: 6
Wild oat; [1]
  Wild oats plant response rating: 1
Wild oat; [2]
  Wild oats plant response rating: 2
Wild oat; [4]
  Wild oats plant response rating: 8
Wild oat; [10]
  Wild oats plant response rating (0 to 10 scale): 9
Wild oat; [11]
  Plant response rating, Wild oats: 10
Wild oat; [7]
  Wild oats plant response rating: 10
Wild oat; [12]
  Plant response rating, Wild oats: 3
Wild oat; [8]
  Wild oats plant response rating: 5
Purple nutsedge; [1]
  Nutsedge plant response rating: 0
Purple nutsedge; [2]
  Nutsedge plant response rating: 0
Purple nutsedge; [3]
  Nutsedge plant response rating: 0
Purple nutsedge; [4]
  Nutsedge plant response rating: 0
Purple nutsedge; [5]
  Plant response rating, Nutsedge: 0
Purple nutsedge; [6]
  Plant response rating, Nutsedge: 0
Purple nutsedge; [8]
  Nutsedge plant response rating: 0
